We go through two compounds from patent publication US20250332170A1, “VANDETANIB REDUCES INFLAMMATORY CYTOKINES AND AMELIORATES COVID-19” (Collaborations Pharmaceuticals, Inc., priority 2021, published 2025).

The structures appear in SMILES notation. “Also recorded” adds a separate entry of the source.

The subject of this experiment is Pseudo SARS-CoV-2 D614G. The format is cell-based.

Turning to `CN1CCN(c2ccc(C(=O)Nc3n[nH]c4ccc(Cc5cc(F)cc(F)c5)cc34)c(NC3CCOCC3)c2)CC1` [Entrectinib], the “SARS-CoV-2 Spike protein-mediated entry, pseudovirus assay” value was “no significant activity”. With `COc1cc2c(Nc3ccc(Br)cc3F)ncnc2cc1OCC1CCN(C)CC1` [Vandetanib], the “SARS-CoV-2 Spike protein-mediated entry, pseudovirus assay” value was “active; also recorded: decreased viral entry”.
